This is an account of results in EP1042468B1.

Molecules are shown by their SMILES. Where “and” joins values, the source holds several entries; their conditions need not be identical. Equal entries are not always repeated. Where two headings read alike, the source gives them in different places.

Assay [1] concerns the target T1, human α1H containing calcium channels expressed in HEK293 cells (Homo sapiens, UniProt O95180).
T1 construct: expressed in transfected cells; host or cells: HEK293 (transient, calcium phosphate; pCMVCD4 co-transfected as marker)
Nature of the assay: Whole-cell patch clamp of HEK293 cells transiently expressing the α1H subunit. The format is cell-based. (In general: The patch-clamp technique gives a direct electrical read-out from membranes.)

Assay [2] has as its target T2, human α1H channels expressed in Xenopus oöcytes (Homo sapiens, UniProt O95180).
T2 construct: Construction of a full-length α1H-1-encoding DNA clone; expressed in transfected cells; host or cells: Xenopus laevis oöcytes injected with in vitro transcripts
Format: cell-based. The conditions noted are these: for IC50: Ba^2+ currents (15 mM Ba^2+).

Assay [3] deals with T-type current in neuroblastoma cells. The conditions noted are these: cited from earlier work.
Assay [4] concerns T-type current in hippocampal neurons. The conditions noted are these: 300 µM; cited from earlier work.
In assay [5] the test system is human neuronal calcium channel α2 and β1 subunits. Nature of the assay: Two-electrode voltage clamp of oöcytes injected with α2 and β1 transcripts. The conditions noted are these: n = 11. Background: In two-electrode clamp one electrode senses voltage and the other passes current.
For assay [6], the target named is human neuronal calcium channel α1D and α2 subunits (Homo sapiens, UniProt Q01668). Nature of the assay: Two-electrode voltage clamp of oöcytes injected with α1D and α2 transcripts. The conditions noted are these: holding potential of -90 mV.
human neuronal calcium channel α1D and α2 subunits, sequence (Q01668 10-2161 limits assumed): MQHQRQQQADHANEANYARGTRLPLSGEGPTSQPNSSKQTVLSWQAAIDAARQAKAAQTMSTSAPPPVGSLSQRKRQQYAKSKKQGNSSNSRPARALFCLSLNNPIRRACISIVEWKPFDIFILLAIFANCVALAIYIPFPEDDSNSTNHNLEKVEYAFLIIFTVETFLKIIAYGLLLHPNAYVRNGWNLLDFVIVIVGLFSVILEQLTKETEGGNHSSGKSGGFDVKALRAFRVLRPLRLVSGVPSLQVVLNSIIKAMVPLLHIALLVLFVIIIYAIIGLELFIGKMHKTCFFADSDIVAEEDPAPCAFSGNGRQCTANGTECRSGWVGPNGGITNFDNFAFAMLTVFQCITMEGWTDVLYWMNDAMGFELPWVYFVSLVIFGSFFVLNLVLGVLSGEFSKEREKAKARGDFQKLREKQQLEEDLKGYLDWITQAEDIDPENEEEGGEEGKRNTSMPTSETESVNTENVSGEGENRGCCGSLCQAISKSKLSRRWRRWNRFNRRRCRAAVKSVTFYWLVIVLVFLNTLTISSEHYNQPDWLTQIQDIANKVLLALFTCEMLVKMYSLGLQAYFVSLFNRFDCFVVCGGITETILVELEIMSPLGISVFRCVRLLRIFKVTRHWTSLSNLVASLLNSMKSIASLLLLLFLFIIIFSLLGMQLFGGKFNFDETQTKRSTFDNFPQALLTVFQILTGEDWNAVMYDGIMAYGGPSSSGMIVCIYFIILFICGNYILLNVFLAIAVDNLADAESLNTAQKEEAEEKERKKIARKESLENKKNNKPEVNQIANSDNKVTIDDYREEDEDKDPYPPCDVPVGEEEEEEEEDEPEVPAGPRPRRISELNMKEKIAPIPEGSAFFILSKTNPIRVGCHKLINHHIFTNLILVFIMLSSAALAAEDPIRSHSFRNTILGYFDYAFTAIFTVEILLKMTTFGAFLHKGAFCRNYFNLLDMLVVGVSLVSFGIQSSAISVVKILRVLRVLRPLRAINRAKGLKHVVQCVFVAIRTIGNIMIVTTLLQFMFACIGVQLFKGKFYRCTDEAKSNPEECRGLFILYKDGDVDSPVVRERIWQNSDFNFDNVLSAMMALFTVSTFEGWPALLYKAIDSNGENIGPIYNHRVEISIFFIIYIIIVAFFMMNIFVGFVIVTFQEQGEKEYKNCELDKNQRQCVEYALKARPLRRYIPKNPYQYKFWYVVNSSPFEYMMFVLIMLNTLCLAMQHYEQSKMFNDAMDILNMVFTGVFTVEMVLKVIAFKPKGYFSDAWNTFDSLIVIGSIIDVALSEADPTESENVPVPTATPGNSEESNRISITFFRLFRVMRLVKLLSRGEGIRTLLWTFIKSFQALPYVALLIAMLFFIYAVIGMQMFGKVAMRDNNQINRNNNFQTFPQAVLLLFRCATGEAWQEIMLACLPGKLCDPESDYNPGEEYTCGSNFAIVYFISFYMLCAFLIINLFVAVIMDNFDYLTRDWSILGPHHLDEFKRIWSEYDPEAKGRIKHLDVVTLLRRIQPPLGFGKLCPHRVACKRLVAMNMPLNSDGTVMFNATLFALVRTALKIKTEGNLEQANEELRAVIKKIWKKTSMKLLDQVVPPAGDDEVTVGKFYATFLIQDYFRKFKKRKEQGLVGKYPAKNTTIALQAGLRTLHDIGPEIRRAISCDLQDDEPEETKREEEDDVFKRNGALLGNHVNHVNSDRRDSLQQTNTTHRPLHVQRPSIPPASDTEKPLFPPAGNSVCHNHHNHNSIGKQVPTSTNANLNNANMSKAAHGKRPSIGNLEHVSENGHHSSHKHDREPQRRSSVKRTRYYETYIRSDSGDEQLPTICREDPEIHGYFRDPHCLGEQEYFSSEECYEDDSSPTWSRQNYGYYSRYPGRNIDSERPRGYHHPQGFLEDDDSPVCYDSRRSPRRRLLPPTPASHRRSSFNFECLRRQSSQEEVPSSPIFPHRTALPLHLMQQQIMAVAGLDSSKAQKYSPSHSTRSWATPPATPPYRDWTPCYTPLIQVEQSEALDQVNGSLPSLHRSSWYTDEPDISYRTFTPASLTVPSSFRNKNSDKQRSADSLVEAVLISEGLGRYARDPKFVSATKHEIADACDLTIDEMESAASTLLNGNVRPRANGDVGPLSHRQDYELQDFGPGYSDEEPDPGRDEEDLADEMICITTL
[7] abbreviates: Xenopus oöcytes, concentration-inhibition curve of Ba^2+ currents.

T2 sequence (O95180 whole entry): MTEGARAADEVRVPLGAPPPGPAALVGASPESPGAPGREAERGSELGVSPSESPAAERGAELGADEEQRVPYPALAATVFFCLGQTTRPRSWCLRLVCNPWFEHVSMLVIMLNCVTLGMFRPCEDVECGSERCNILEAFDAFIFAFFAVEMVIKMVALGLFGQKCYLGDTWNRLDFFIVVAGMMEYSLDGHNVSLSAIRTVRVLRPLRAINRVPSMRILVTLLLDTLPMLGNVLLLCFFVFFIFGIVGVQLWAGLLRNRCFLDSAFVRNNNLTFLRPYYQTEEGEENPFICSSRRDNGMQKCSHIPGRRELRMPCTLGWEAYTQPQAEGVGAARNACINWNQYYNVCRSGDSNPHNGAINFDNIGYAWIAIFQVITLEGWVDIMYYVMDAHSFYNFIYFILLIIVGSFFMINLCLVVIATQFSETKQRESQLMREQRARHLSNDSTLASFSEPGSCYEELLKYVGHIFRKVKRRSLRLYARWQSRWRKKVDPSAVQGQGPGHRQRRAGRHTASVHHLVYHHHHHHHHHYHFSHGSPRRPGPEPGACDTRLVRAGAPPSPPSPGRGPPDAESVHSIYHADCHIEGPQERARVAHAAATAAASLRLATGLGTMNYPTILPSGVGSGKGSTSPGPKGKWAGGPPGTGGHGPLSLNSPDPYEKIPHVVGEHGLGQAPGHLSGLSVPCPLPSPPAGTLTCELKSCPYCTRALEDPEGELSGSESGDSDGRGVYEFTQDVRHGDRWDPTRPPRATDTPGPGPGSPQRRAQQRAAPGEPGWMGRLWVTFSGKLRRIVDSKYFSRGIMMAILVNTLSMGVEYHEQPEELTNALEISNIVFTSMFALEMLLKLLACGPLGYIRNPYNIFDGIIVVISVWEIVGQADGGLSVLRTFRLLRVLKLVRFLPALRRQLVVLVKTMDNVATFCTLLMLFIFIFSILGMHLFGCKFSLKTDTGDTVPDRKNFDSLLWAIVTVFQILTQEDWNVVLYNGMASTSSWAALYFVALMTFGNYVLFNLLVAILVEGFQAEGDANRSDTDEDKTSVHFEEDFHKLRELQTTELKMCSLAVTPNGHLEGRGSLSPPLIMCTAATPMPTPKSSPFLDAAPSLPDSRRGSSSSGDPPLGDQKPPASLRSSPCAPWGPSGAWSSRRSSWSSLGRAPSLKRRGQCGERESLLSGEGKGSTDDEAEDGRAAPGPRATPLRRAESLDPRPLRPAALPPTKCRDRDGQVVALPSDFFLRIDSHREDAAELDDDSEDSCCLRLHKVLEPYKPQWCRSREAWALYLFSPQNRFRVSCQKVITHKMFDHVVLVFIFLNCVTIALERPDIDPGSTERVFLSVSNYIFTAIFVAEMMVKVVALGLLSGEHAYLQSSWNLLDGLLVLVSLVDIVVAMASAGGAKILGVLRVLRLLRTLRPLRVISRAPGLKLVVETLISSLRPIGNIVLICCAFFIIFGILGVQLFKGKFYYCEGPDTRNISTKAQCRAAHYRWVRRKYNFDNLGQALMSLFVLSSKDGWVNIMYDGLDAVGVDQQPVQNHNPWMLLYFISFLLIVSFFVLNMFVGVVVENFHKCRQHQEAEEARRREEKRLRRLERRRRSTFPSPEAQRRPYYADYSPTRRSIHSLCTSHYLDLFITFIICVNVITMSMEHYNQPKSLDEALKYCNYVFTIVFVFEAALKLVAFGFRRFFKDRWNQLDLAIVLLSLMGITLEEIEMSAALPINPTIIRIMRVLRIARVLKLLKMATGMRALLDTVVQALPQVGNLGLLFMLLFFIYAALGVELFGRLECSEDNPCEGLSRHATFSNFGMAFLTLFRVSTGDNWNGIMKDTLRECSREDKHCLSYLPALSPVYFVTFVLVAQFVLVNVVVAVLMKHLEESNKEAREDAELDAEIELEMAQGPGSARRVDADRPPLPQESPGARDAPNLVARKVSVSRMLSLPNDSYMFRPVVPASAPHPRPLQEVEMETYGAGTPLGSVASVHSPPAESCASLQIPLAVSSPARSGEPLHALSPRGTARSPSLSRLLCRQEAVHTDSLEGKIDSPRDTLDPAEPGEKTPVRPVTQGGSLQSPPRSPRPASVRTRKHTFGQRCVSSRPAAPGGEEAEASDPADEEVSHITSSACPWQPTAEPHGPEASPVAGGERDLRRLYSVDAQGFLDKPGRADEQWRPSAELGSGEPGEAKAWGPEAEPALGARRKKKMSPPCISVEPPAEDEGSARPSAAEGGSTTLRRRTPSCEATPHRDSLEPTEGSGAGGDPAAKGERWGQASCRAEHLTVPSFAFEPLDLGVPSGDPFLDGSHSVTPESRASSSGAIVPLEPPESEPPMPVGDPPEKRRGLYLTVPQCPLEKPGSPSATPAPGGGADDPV
T1 sequence (O95180 whole entry): as above

What is called IC50 is the concentration needed to halve the response being measured. For `[Ni+2]` [Ni^2+], in assay [1], the half-inhibitory concentration (IC50) turned out to be 6.6 µM, the “effect on α1H-mediated currents (in words)” value is on record as “inhibited” and the “α1H-mediated currents more sensitive to Ni^2+ than to Cd^2+” value was determined as 16 fold. In assay [2] (Xenopus oöcytes), the reversibility of antagonism entry is recorded as “largely reversible” and the midpoint of inhibition, the IC50, lay at 6.3 µM. This compound returned a nH in assay [2] (setting [7]) of 0.84.
By inhibition is commonly meant the relative decrease from the control value, in per cent. Take `COCCOC(=O)C1=C(C)NC(C)=C(C(=O)OC(C)C)C1c1cccc([N+](=O)[O-])c1` (centres unmarked) [Nimodipine, nimodipine]: the inhibition at 10 µM in assay [1] (HEK293, 10 µM, HEK293 cells, 15 mM Ba^2+, mean ± SD(n), read-out: % Inhibition of Control Response) turned out to be 43.7 ± 4.1%.
With `CCC1(C)CC(=O)NC1=O` (centres unmarked) [Ethosuximide, ethosuximide], in assay [1] (HEK293, 300 µM, HEK293 cells, 15 mM Ba^2+, mean ± SD(n), read-out: % Inhibition of Control Response), the inhibition at 300 µM came out at 7.2 ± 1.8%. Also, the “effect on α1H-mediated currents (in words)” value in assay [1] (no concentration stated) was “no effect”.
In the case of `COCC(=O)O[C@]1(CCN(C)CCCc2nc3ccccc3[nH]2)CCc2cc(F)ccc2[C@@H]1C(C)C` [Mibefradil, (IS,2S)-2-[2-[[3-(1H-benzimidazol-2-yl)propyl]methyl-amino]ethyl]-6-fluoro-1-isopropyl-1,2,3,4-tetrahydronaphthalen-2-yl methoxyacetate], the inhibition at 1 µM in assay [1] (1 µM, HEK293 cells, 15 mM Ba^2+, mean ± SD(n), read-out: % Inhibition of Control Response) turned out to be 51 ± 10%. Also, in assay [1] (no concentration stated), the “effect on α1H-mediated currents (in words)” value is given as “inhibited”. In assay [2] (setting [7]), the nH stood at 0.71.
For the compound `[Cd+2]` [Cd^2+], in assay [1], the 50% inhibitory concentration (IC50) stood at 104 µM and the “sensitivity of α1H-1-containing calcium channels lower when expressed in HEK293 cells than when expressed in Xenopus oöcytes” value is reported as “about 10 fold”. Also, in assay [2] (Xenopus oöcytes), the IC50 was 8.3 µM and 10.3 µM.
Regarding `N=C(N)NC(=O)c1nc(Cl)c(N)nc1N` [Amiloride, amiloride], in assay [1], the “effect on α1H-mediated currents (in words)” value is on record as “inhibited” and the “sensitivity of α1H-1-containing calcium channels lower when expressed in HEK293 cells than when expressed in Xenopus oöcytes” value is recorded as “about 10 fold”. Also, the IC50 in assay [1] (HEK293 cells, charge carrier 15 mM Ba^2+, sigmoidal curve fitting) turned out to be 167 µM. In assay [2], this compound had a nH of 0.62. Moreover, the half-maximal inhibitory concentration (IC50) in assay [3] is ~50 µM. The “reduction of the T-type current” value in assay [4] is 40%.
Take `COC(=O)C1=C(C)NC(C)=C([N+](=O)[O-])[C@H]1c1ccccc1C(F)(F)F` [(-)BayK-8644]: in assay [1] (HEK293, read-out: % Inhibition of Control Response, 1 µM, HEK293 cells, 15 mM Ba^2+, mean ± SD(n)), the inhibition at 1 µM was determined as 0.4 ± 0.8%. In assay [1] (concentration of 1 µM), the “effect on α1H channels (in words)” value was “little effect”. Further, the “effect on α1H-containing channels (in words)” value in assay [1] (concentration of 10 µM) was “marked inhibition”.
As for `COC(=O)C1=C(C)NC(C)=C([N+](=O)[O-])C1c1ccccc1C(F)(F)F` (centres unmarked) [Bay K 8644], in assay [5], the “sensitivity of inward barium currents (in words)” value was “insensitive”. In assay [6], the “response of barium currents (in words)” value is “little or no response”.
